Source: patent US12606834B2 (priority 2015, dated 2026)

Test system: E. coli R182
Type: cell-based, Escherichia coli
Text: We compared the combination of P1 CRISPR phage (targeting ftsA) and ciprofloxacin to the use of P1 CRISPR phage alone for killing E. coli R182, a ciprofloxacin-resistant strain (FIG. 10A). Ciprofloxacin (Cip) dose was the highest therapeutically relevant concentration (4 micrograms per milliliter) to which the R182 strain is known to be resistant. E. coli were infected with CRISPR phage targeting the E. coli ftsA gene at a range of multiplicities of infection (MOI).
In addition, the combination of P1 CRISPR phage (targeting ftsA) and imipenem, a standard of care antibiotic in E. coli infections, was compared with P1 CRISPR phage alone for killing E. coli R182, a ciprofloxacin-resistant strain (FIG. 10B). […] The E. coli cells were infected with CRISPR phage at a range of MOI.
Finally, we compared the loss of viable E. coli R182 cells following exposure to imipinem, P1 CRISPR phage targeting ftsA, or a combination of both (FIG. 10C). For relevant conditions (n=3 for each condition), imipenem was held at a constant dose (LD50 for E. coli R182) and CRISPR phage was held to a MOI of 2.

Row | SMILES | CFU reduction (constant dose (the LD50 for E. coli R182), FIG. 10B) [log] | bacterial viability (ciprofloxacin alone, 4 micrograms per milliliter, FIG. 10A)
1 | C[C@@H](O)[C@H]1C(=O)N2C(C(=O)O)=C(SCCN=CN)C[C@H]12 [Imipenem, imipenem] | 0.3 | 
2 | O=C(O)c1cn(C2CC2)c2cc(N3CCNCC3)c(F)cc2c1=O [ciprofloxacin] |  | did not reduce bacterial viability
